This passage reports IC50, EC50 and AC50 results from US12590062B2, “PD-1/PD-L1 inhibitors” (Gilead Sciences, Inc., priority 2017, dated 2026).

The target of one assay is PD-1/PD-L1 (Homo sapiens, UniProt Q9NZQ7). Put plainly: PD-1/PD-L1 biochemical protein-protein interaction assay (ALPHA). The assay is classed as binding. Conditions: 0.3 nM His tagged PD-L1, 2.5 nM biotinylated Fc-PD-1, 60 minutes at 25° C., read-out: IC50 PD-L1-PD-1 Alpha IC50-mono PD-L1-fcP-D1. A digest of the protocol: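 Final concentrations 0.3 nM His-tagged PD-L1 and 2.5 nM biotinylated Fc-PD-1 (extracellular domains) were reacted with compound for 60 min at 25° C in pH 7.4 Hepes/NaCl/EDTA/Tween/BSA buffer. Binding was then detected by ALPHA beads, and IC50 values were taken from four-parameter curve fitting.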

Another assay addresses T1, PD-1/PD-L1 interaction (Homo sapiens, UniProt Q9NZQ7).
T1 construct: expressed in transfected cells; host or cells: CHO cells (aAPC-PD-L1) co-cultured with Jurkat cells overexpressing PD-1 and an NFAT-luciferase reporter
Put plainly: PD-1/PD-L1 NFAT reporter co-culture assay. The assay is classed as cell-based. Conditions: Jurkat PD-1 NFAT-luciferase cells co-cultured with aAPC-PD-L1 CHO cells, 6 hrs at 37° C.; read-out: EC50 NFAT Luciferase. A digest of the protocol: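 Restoration of TCR-driven NFAT luciferase signal: 6 h, 37 °C co-culture of PD-1 Jurkat reporter cells (pre-mixed with compound) on overnight-seeded PD-L1/anti-CD3 CHO monolayer. ONE-Glo luminescence; dose-response fitted to four-parameter equation for EC50.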

The target of the next assay is T2, PD-L1 (Homo sapiens, UniProt Q9NZQ7).
T2 construct: determine if they can specifically dimerize the extracellular domains of PD-L1
Put plainly: PD-L1/PD-L1 dimerization biochemical protein-protein interaction assay (ALPHA). The assay is classed as binding. Conditions: compound-induced PD-L1 dimerization, head prints '1 nM' (0.5 nM His-tagged PD-L1 and 0.5 nM FLAG-tagged PD-L1), read-out: AC50 PDL1 Dimer Alpha 1 nM. A digest of the protocol: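 ALPHA proximity assay of compound-induced dimerization of 0.5 nM His-tagged and 0.5 nM FLAG-tagged PD-L1 extracellular domains in Hepes pH 7.4 buffer, 2 h at 25 °C. Anti-His acceptor then anti-FLAG donor beads, 60 min each; AC50 from four-parameter fit.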

For orientation: IC50 means the concentration that gives 50% inhibition. The term EC50 denotes the concentration at which the effect is half-maximal. The term AC50 denotes the concentration at which the activity in the assay is half-maximal.

T1 sequence (Q9NZQ7 19-290): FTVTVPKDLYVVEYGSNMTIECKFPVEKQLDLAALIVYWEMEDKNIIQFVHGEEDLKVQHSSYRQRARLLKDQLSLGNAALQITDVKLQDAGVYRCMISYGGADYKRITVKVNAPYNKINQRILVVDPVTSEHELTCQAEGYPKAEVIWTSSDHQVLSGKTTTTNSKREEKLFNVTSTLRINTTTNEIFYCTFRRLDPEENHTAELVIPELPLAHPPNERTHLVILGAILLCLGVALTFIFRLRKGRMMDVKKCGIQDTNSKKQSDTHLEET
T2 sequence (Q9NZQ7 19-238 limits assumed): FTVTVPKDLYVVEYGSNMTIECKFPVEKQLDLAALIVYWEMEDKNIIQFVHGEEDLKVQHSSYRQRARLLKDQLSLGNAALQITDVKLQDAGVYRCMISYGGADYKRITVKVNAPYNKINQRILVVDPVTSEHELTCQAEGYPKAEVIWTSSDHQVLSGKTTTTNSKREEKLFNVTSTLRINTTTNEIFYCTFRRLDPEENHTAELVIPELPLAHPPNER
T2 sequence (Q9NZQ7 19-238 limits assumed): as above
Chain of PD-1/PD-L1 (Q9NZQ7 19-238 limits assumed): as above

As to `COc1nc(-c2cccc(-c3cccc4c3CC[C@@H]4Oc3nc(OC)c(CN4CCC[C@@H](C(=O)O)C4)cc3Cl)c2Cl)ccc1CNC[C@@H]1CCC(=O)N1` [Example 758], at PD-1/PD-L1, the IC50 worked out at 0.064 nM. In addition, the EC50 at PD-1/PD-L1 interaction is 29 nM. For the same compound, the AC50 at PD-L1 amounted to 36.7 nM.

`COc1nc(-c2cccc(-c3cccc4c3CC[C@@H]4Oc3nc(OC)c(CN4CCC[C@H](C(=O)O)C4)cc3Cl)c2Cl)ccc1CNC[C@@H]1CCC(=O)N1` [Example 759]: on PD-1/PD-L1, the half-inhibitory concentration (IC50) was 0.064 nM. Further, on PD-1/PD-L1 interaction, the EC50 worked out at 16 nM. For the same compound, the AC50 on PD-L1 is 18.9 nM.

With `COc1nc(-c2cccc(-c3cccc4c3CC[C@@H]4Oc3nc(OC)c(CN4C[C@H](C(=O)O)[C@@H](C(C)C)C4)cc3Cl)c2Cl)ccc1CNC[C@@H]1CCC(=O)N1` [Example 760], the IC50 on PD-1/PD-L1 was 0.064 nM. The EC50 at PD-1/PD-L1 interaction is 63 nM. Further, the AC50 on PD-L1 was determined as 44.2 nM.

Turning to `COc1nc(-c2cccc(-c3cccc4c3CC[C@@H]4Oc3nc(OC)c(CN4CCCC(C)(C(=O)O)C4)cc3Cl)c2Cl)ccc1CNC[C@@H]1CCC(=O)N1` (stereo partly drawn) [Example 761], the IC50 on PD-1/PD-L1 came out at 0.064 nM. The EC50 at PD-1/PD-L1 interaction stood at 10 nM. In addition, at PD-L1, the AC50 was found to be 13.2 nM.

As for `COc1nc(-c2cccc(-c3cccc4c3CC[C@@H]4Oc3nc(OC)c(CN4CCCC(O)(C(=O)O)C4)cc3Cl)c2Cl)ccc1CNC[C@@H]1CCC(=O)N1` (stereo partly drawn) [Example 762], the IC50 on PD-1/PD-L1 worked out at 0.064 nM. Also, on PD-1/PD-L1 interaction, the EC50 is 18 nM. For the same compound, the concentration at half-maximal activity (AC50) at PD-L1 is 13.6 nM.

Regarding `COc1nc(-c2cccc(-c3cccc4c3CC[C@@H]4Oc3nc(OC)c(CN4CCC(C)(C(=O)O)C4)cc3Cl)c2Cl)ccc1CNC[C@@H]1CCC(=O)N1` (stereo partly drawn) [Example 763], at PD-1/PD-L1, the IC50 is 0.064 nM. The EC50 on PD-1/PD-L1 interaction was determined as 10 nM. Besides, the AC50 at PD-L1 was found to be 11.3 nM.

In the case of `COc1nc(-c2cccc(-c3cccc4c3CC[C@@H]4Oc3nc(OC)c(CN4CCC[C@H](C(=O)O)[C@@H]4C)cc3Cl)c2Cl)ccc1CNC[C@@H]1CCC(=O)N1` [Example 764], the IC50 on PD-1/PD-L1 worked out at 0.064 nM. In addition, the EC50 on PD-1/PD-L1 interaction is 23 nM. For the same compound, at PD-L1, the AC50 turned out to be 31.9 nM.

Regarding `COc1nc(-c2cccc(-c3cccc4c3CC[C@@H]4Oc3nc(OC)c(CN4C[C@@H](C)[C@H](C(=O)O)C4)cc3Cl)c2Cl)ccc1CNC[C@@H]1CCC(=O)N1` [Example 765], the 50% inhibitory concentration (IC50) on PD-1/PD-L1 is 0.064 nM. Further, at PD-1/PD-L1 interaction, the EC50 came out at 11 nM. Further, the AC50 at PD-L1 came out at 13.1 nM.

For `COc1nc(-c2cccc(-c3cccc4c3CC[C@@H]4Oc3nc(OC)c(CN4CC5(C(=O)O)CCC4CC5)cc3Cl)c2Cl)ccc1CNC[C@@H]1CCC(=O)N1` [Example 766], the IC50 on PD-1/PD-L1 was 0.064 nM. The EC50 at PD-1/PD-L1 interaction was 21 nM. Further, the concentration at half-maximal activity (AC50) on PD-L1 came out at 19.4 nM.

For the compound `COc1nc(O[C@H]2CCc3c(-c4cccc(-c5cnc(CN6CC7(C6)CN(C(C)=O)C7)c(OC)n5)c4Cl)cccc32)c(Cl)cc1CN1CC[C@@H](C(=O)O)C1` [Example 767], at PD-1/PD-L1, the IC50 was 0.064 nM. In addition, the EC50 on PD-1/PD-L1 interaction came to 57 nM. At PD-L1, the AC50 was 75.7 nM.

Regarding `COc1nc(O[C@H]2CCc3c(-c4cccc(-c5cnc(CNC[C@@H]6CCC(=O)N6)c(OC)n5)c4Cl)cccc32)c(Cl)cc1CN1CC[C@@H](C(=O)O)C1` [Example 768], the IC50 on PD-1/PD-L1 was determined as 0.064 nM. Besides, the EC50 at PD-1/PD-L1 interaction is 33 nM. For the same compound, on PD-L1, the AC50 worked out at 47.4 nM.

For `COc1nc(-c2cccc(-c3cccc4c3CC[C@@H]4Oc3nc(OC)c(CN4CC[C@@H](C(=O)O)C4)cc3Cl)c2Cl)ccc1CNC[C@@H]1CCC(=O)N1` [Example 769], on PD-1/PD-L1, the IC50 was 0.064 nM. The EC50 at PD-1/PD-L1 interaction is 25 nM. Besides, the AC50 on PD-L1 came to 28.1 nM.

Consider `CCOC(=O)[C@@H]1CCN(Cc2cc(Cl)c(O[C@H]3CCc4c(-c5cccc(-c6ccc(CN7CC8(C7)CN(C(C)=O)C8)cc6)c5Cl)cccc43)nc2OC)C1` [Example 770], for which the IC50 at PD-1/PD-L1 is 0.418 nM. The EC50 at PD-1/PD-L1 interaction was 856 nM. Moreover, at PD-L1, the AC50 stood at 700 nM.

For the compound `COc1nc(O[C@H]2CCc3c(-c4cccc(-c5ccc(CN6CC7(C6)CN(C(C)=O)C7)cc5)c4Cl)cccc32)c(Cl)cc1CN1CC[C@@H](C(=O)O)C1` [Example 771], the IC50 on PD-1/PD-L1 came to 0.064 nM. The EC50 on PD-1/PD-L1 interaction amounted to 130 nM. Also, the AC50 at PD-L1 is 45 nM.

With `COc1nc(O[C@H]2CCc3c(-c4cccc(-c5ccc(CNCCO)cc5)c4Cl)cccc32)c(Cl)cc1CNCCO` [Example 772], the IC50 on PD-1/PD-L1 is 0.552 nM. Further, the concentration for a half-maximal effect (EC50) on PD-1/PD-L1 interaction was no less than 50000 nM. In addition, the AC50 at PD-L1 turned out to be 19.5 nM.

In the case of `COc1nc(O[C@H]2CCc3c(-c4cccc(-c5ccc(CN6CC7(CCC(=O)N7)C6)cc5)c4Cl)cccc32)c(Cl)cc1CN1CC2(CCC(=O)N2)C1` [Example 773], on PD-1/PD-L1, the IC50 was 0.638 nM. On PD-1/PD-L1 interaction, the EC50 worked out at 2100 nM. For the same compound, the AC50 at PD-L1 is no less than 10000 nM.

As for `COc1nc(O[C@H]2CCc3c(-c4cccc(-c5ccc(C6=N[C@@H](C)CN6)c(OC)n5)c4Cl)cccc32)c(Br)cc1CN1CC[C@H](O)[C@H](F)C1` [Example 774], on PD-1/PD-L1, the IC50 came to 1.31 nM. In addition, the EC50 on PD-1/PD-L1 interaction amounted to 463 nM. Also, the AC50 at PD-L1 is 2730 nM.

Turning to `COc1nc(O[C@H]2CCc3c(-c4cccc(-c5ccc(C6=NCCN6)c(OC)n5)c4Cl)cccc32)c(Br)cc1CN1CC2(C1)CN(C(C)=O)C2` [Example 775], the IC50 on PD-1/PD-L1 came out at 0.276 nM. At PD-1/PD-L1 interaction, the EC50 is 84 nM. On PD-L1, the AC50 stood at 68 nM.

For the compound `CCOC(=O)[C@@H]1CCCCN1Cc1cc(Br)c(O[C@H]2CCc3c(-c4cccc(-c5ccc(C6=NCCN6)c(OC)n5)c4Cl)cccc32)nc1OC` [Example 776], at PD-1/PD-L1, the IC50 was found to be 8.31 nM. Also, the EC50 at PD-1/PD-L1 interaction was determined as 1440 nM. Further, the AC50 at PD-L1 was no less than 10000 nM.

In the case of `COc1cc(-c2cccc(-c3cccc4c3CC[C@@H]4Oc3ccc(CN[C@@](C)(CO)C(=O)O)c(OC)n3)c2Cl)ccc1C1=NCCN1` [Example 777], on PD-1/PD-L1, the IC50 stood at 0.064 nM. The EC50 on PD-1/PD-L1 interaction stood at 179 nM. For the same compound, the AC50 at PD-L1 came to 45.8 nM.

With `COc1nc(O[C@H]2CCc3c(-c4cccc(-c5ccc(C6=N[C@H](C)CN6)c(OC)n5)c4Cl)cccc32)ccc1CN[C@@](C)(CO)C(=O)O` [Example 778], the half-maximal inhibitory concentration (IC50) on PD-1/PD-L1 came to 0.113 nM. The EC50 at PD-1/PD-L1 interaction was 212 nM. For the same compound, the AC50 on PD-L1 was found to be 259 nM.

As to `COc1nc(O[C@H]2CCc3c(-c4cccc(-c5ccc(C6=NCCN6)c(OC)n5)c4Cl)cccc32)c(Br)cc1CNC[C@@H]1CCC(=O)N1` [Example 779], the IC50 at PD-1/PD-L1 turned out to be 0.353 nM. The half-maximal effective concentration (EC50) at PD-1/PD-L1 interaction amounted to 68 nM. Besides, the AC50 on PD-L1 was determined as 113 nM.

Regarding `COc1cc(-c2cccc(-c3cccc4c3CC[C@@H]4Oc3nc(OC)c(CN[C@@](C)(CO)C(=O)O)cc3Br)c2Cl)ccc1C1=NCCN1` [Example 780], at PD-1/PD-L1, the IC50 is 0.064 nM. Moreover, the EC50 at PD-1/PD-L1 interaction came out at 50 nM. Besides, the AC50 at PD-L1 was determined as 14.4 nM.

As to `COc1nc(O[C@H]2CCc3c(-c4cccc(-c5ccc(C6=N[C@@H](C)CN6)c(OC)n5)c4Cl)cccc32)c(Br)cc1CN[C@@](C)(CO)C(=O)O` [Example 781], the IC50 on PD-1/PD-L1 was found to be 0.064 nM. Also, the EC50 at PD-1/PD-L1 interaction was found to be 34 nM. Besides, on PD-L1, the AC50 was determined as 23.3 nM.

On to `COc1nc(O[C@H]2CCc3c(-c4cccc(-c5ccc(C6=N[C@H](C)CN6)c(OC)n5)c4Cl)cccc32)c(Br)cc1CN[C@@](C)(CO)C(=O)O` [Example 782], for which the IC50 on PD-1/PD-L1 is 0.064 nM. Besides, at PD-1/PD-L1 interaction, the EC50 came to 38 nM. For the same compound, the half-maximal activity concentration (AC50) at PD-L1 is 23.1 nM.

With `COc1nc(O[C@H]2CCc3c(-c4cccc(-c5ccc6c(c5)C[C@@H](N)C6)c4Cl)cccc32)ccc1CN[C@@](C)(CO)C(=O)O` [Example 783], the concentration for half-maximal inhibition (IC50) on PD-1/PD-L1 is 0.259 nM. For the same compound, the EC50 on PD-1/PD-L1 interaction stood at 2990 nM. On PD-L1, the AC50 came to 823 nM.
